In ChEMBL document CHEMBL1201862, “PubChem BioAssay data set” (2004):
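All cell lines were grown in 96-well plates and treated with compound for 48 hours. Here, GI50 denotes the concentration required for 50% inhibition of growth.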 The source made the active and inactive calls. No stated cut-off is given here; in the data, active = GI50 up to about 1.1 µM and inactive = higher.

Columns and labels:
Assay in all cases: DTP human tumour cell line panel, 48 h
[1] = tested on: XF498
[2] = tested on: HOP-18
[3] = tested on: RXF 631
[4] = tested on: DMS-114
[5] = tested on: DMS-273
[6] = tested on: LXFL 529
[7] = tested on: KM-20L2

Measured: GI50

COc1ccc(Br)c(CN2CCc3ccccc32)c1OS(=O)(=O)c1ccc(C)cc1
inactive: [1] 12.4 µM | [2] > 100 µM | [3] 34.4 µM | [4] 18.3 µM

CS(=O)(=O)N/N=C/CN1C(=O)c2ccccc2C1=O
inactive: [1] > 100 µM | [2] > 100 µM | [5] > 100 µM | [6] > 100 µM | [7] > 100 µM | [4] > 100 µM

CC(=O)C1C(=O)C(=O)N(c2ccc(Cl)cc2C)C1=O (stereo not given)
inactive: [2] > 100 µM | [3] > 100 µM | [6] > 100 µM | [7] > 100 µM | [4] > 100 µM

C/C(=N/NC(=O)c1ccccc1S(N)(=O)=O)C(CN1CCCCC1)C(C1=C(O)C2C=CC=CC2OC1=O)c1ccccc1 (stereo not given)
inactive: [1] > 100 µM | [2] 87.1 µM | [3] > 100 µM | [6] 96.6 µM | [7] > 100 µM

O=C(NNc1ccc([N+](=O)[O-])cc1)C1OC(CO)C(O)C1O (stereo not given)
inactive: [1] > 100 µM | [2] > 100 µM | [5] > 100 µM | [6] 38.3 µM | [7] > 100 µM | [4] > 100 µM

CC(=O)Oc1ccc(Nn2c3ccccc3c3ccccc32)c(C)c1
inactive: [1] 27.7 µM | [2] 16.7 µM | [5] 19.6 µM | [6] 33.7 µM | [7] 29.4 µM | [4] 27.1 µM

NC(CCCCNCc1ccccc1)C(=O)O (stereo not given)
inactive: [2] > 100 µM | [5] > 100 µM | [3] > 100 µM | [6] > 100 µM | [7] > 100 µM | [4] > 100 µM

O=C1NC2CCCCCC2C12CCCCC2 (stereo not given)
inactive: [1] > 100 µM | [3] > 100 µM | [6] > 100 µM | [7] > 100 µM | [4] > 100 µM

CC1(O)C=CC(=O)C=C1
inactive: [1] 29.1 µM | [2] 58.2 µM | [5] 18.3 µM | [6] 13.3 µM | [7] 32 µM | [4] 16.4 µM

Cc1ccc(S(=O)(=O)N/N=C(/c2nc3ccc([N+](=O)[O-])cc3nc2O)C(O)c2ccc(C(O)/C(=N\NS(=O)(=O)c3ccc(C)cc3)c3nc4ccc([N+](=O)[O-])cc4nc3O)cc2)cc1 (stereo not given)
inactive: [1] > 100 µM | [5] 38.4 µM | [3] 56.5 µM | [6] 21.4 µM | [7] 55.8 µM | [4] 5.98 µM

COc1ccc(/C(Cl)=C(\C=O)c2ccc(OC)c(OC)c2)cc1
inactive: [1] 22.2 µM | [2] 49.9 µM | [3] 54.3 µM | [6] 30.4 µM | [7] > 100 µM | [4] 25.9 µM

CCOC(=O)C1CCn2c(nc3c(=O)n(C)c(=O)n(C)c32)S1 (stereo not given)
inactive: [2] > 100 µM | [5] > 100 µM | [3] > 100 µM | [6] > 100 µM | [7] > 100 µM

N#C/C(=C/c1ccco1)C(=O)c1ccccc1
inactive: [1] > 100 µM | [2] > 100 µM | [3] > 100 µM | [6] > 100 µM | [4] > 100 µM

CN(C)CCNC(=O)c1cccc2c1nc(-c1cccnc1)c1ccccc12
inactive: [2] 21.6 µM | [5] 3.02 µM | [3] 1.96 µM | [4] 4.91 µM

CCCCCCCCCCCC(=O)C1=C(O)CCC(O)C1=O (stereo not given)
inactive: [1] 10.7 µM | [2] 25.5 µM | [5] 7.29 µM | [6] 16.6 µM | [7] 11.7 µM | [4] 14.2 µM

COC(=O)C#CCC1CCCC1C1SCCS1 (stereo not given)
inactive: [1] 41 µM | [2] > 100 µM | [5] 30.4 µM | [3] > 100 µM | [6] 70.1 µM | [7] 59.6 µM | [4] > 100 µM

c1ccc(N/N=C2\NN=C(c3ccccc3)CS2)cc1
inactive: [3] 5.52 µM | [7] 6.46 µM
